# Structures can show the parent of a compound that is named as a salt.
row,Structure (SMILES),melting point [°C]
1,"COc1ccc(C(=O)Nc2nc3ccc(NC=O)cc3c(NCc3cccs3)c2C#N)cc1 [Example 10, N-{3-Cyano-6-(formylamino)-4-[(2-thienylmethyl)amino]quinolin-2-yl]-4-methoxybenzamide]",223 to 226
2,"CNc1ccc2nc(NC(=O)c3ccc(OC)cc3)c(C#N)c(NCc3ccccc3)c2c1 [Example 9, N-{4-(benzylamino)-3-cyano-6-(methylamino)quinolin-2-yl}-4-methoxybenzamide]",237 to 240
3,"COc1ccc(C(=O)Nc2nc3ccc(N)cc3c(NCc3ccccc3)c2C#N)cc1 [Example 7, N-[6-amino-4-(benzylamino)-3-cyanoquinolin-2-yl]-4-methoxybenzamide]",228 to 230
4,"COc1ccc(C(=O)Nc2nc3ccc(NS(=O)(=O)O)cc3c(NCc3ccccc3)c2C#N)cc1 (as salt: ammonium) [Example 11, {4-(Benzylamino)-3-cyano-2-[(4-methoxybenzoyl)amino]quinolin-6-yl}sulfamic acid]",220 to 222
